These results are taken from patent US20110312941A1, “1,4-DISUBSTITUTED PIPERIDINES AS VASOPRESSIN RECEPTOR VIA ANTAGONISTS” (VANTIA LIMITED, priority 2009, published 2011).

This test concerns the target T1, cloned human V1a receptor (Homo sapiens, UniProt P37288).
T1 construct: host or cells: human brain astrocytoma 1321N1 cells
Put plainly: in vitro functional calcium mobilisation assay (FLIPR), antagonist activity, 1321N1 cells, 250 pM AVP. In kind it is cell-based. As to conditions: functional pKi derived from pIC50 (Equation 1), FLIPR Ca2+ mobilisation, 1321N1 cells expressing cloned human V1a receptor, read-out: Mean fpKi (Human V1a) (converted). The procedure:
The primary assay which may be used to determine the ability of the compounds of formula (1) to inhibit the vasopressin V1a receptor is an in vitro functional calcium mobilisation assay (FLIPR) that measures antagonist activity at a cloned human V1a receptor. The assay is described below.
The antagonist activity of compounds of formula (1) were determined in a Calcium (Ca2+) mobilisation assay using whole cells (human brain astrocytoma 1321N1 cells, ex Perkin Elmer) genetically modified to stably express a cloned human V1a receptor. Dose response curves were determined by displacement of a single concentration of agonist (250 pM AVP, ex Sigma) with increasing concentrations of compound. A pIC50 value is determined by non-linear regression to a 4-parameter logistic equation and a functional pKi (fpKi) derived using Equation 1.
where A=agonist single conc, and A50=the agonist EC50.

T1 sequence (P37288 whole entry): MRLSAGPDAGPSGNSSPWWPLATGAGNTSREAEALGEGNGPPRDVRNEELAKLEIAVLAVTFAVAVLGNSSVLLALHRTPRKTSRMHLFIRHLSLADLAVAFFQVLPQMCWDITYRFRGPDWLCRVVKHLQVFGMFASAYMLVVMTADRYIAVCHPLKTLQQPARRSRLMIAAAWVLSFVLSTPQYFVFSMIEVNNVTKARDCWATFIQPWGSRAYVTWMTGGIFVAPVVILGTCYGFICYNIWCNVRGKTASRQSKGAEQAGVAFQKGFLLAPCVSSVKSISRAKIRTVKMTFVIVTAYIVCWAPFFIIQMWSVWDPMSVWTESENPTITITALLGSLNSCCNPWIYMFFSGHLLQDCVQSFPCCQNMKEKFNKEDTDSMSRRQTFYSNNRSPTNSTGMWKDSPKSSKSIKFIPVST

`Cc1nc2c([nH]1)-c1cc(Cl)ccc1N(C(=O)C1CCN(c3ccccn3)CC1)CC2` [Example 44]: the Ki is 0.0126 µM. Take `Cc1ccc(N2CCC(C(=O)N3CCc4nc(C)[nH]c4-c4cc(Cl)ccc43)CC2)nc1` [Example 45, (9-Chloro-2-methyl-4,5-dihydro-1H-1,3,6-triaza-benzo[e]azulen-6-yl)-(5′-methyl-3,4,5,6-tetrahydro-2H-[1,2′]bipyridinyl-4-yl)-methanone]: the Ki is 0.00631 µM. With `CCc1nc2c([nH]1)-c1cc(Cl)ccc1N(C(=O)C1CCN(c3ccccn3)CC1)CC2` [Example 46] the figure was 0.0135 µM; with `CCCc1nc2c([nH]1)-c1cc(Cl)ccc1N(C(=O)C1CCN(c3ccccn3)CC1)CC2` [Example 47], 0.0117 µM; with `O=C(C1CCN(c2ccccn2)CC1)N1CCc2nc(C3CC3)[nH]c2-c2cc(Cl)ccc21` [Example 48], 0.0102 µM. `O=C(C1CCN(c2ccccn2)CC1)N1CCc2nc(C3CCCCC3)[nH]c2-c2cc(Cl)ccc21` [Example 49]: the Ki is 0.0234 µM. For `O=C(C1CCN(c2ccccn2)CC1)N1CCc2nc(N3CCCCC3)[nH]c2-c2cc(Cl)ccc21` [Example 50] the value was 0.0245 µM; for `CN1CCN(c2nc3c([nH]2)-c2cc(Cl)ccc2N(C(=O)C2CCN(c4ccccn4)CC2)CC3)CC1` [Example 51], 0.0174 µM. With `Cc1ccc(N2CCC(C(=O)N3CCc4nc(N5CCN(C)CC5)[nH]c4-c4cc(Cl)ccc43)CC2)nc1` [Example 52], the Ki is 0.0011 µM. For `O=C(C1CCN(c2ccccn2)CC1)N1CCc2nc(-c3ccccc3)[nH]c2-c2cc(Cl)ccc21` [Example 53] the value was 0.0646 µM; for `O=C(C1CCN(c2ccccn2)CC1)N1CCc2nc(-c3ccccc3F)[nH]c2-c2cc(Cl)ccc21` [Example 54], 0.0759 µM; for `O=C(C1CCN(c2ccccn2)CC1)N1CCc2nc(-c3cccc(F)c3)[nH]c2-c2cc(Cl)ccc21` [Example 55], 0.0977 µM. Take `O=C(C1CCN(c2ccccn2)CC1)N1CCc2nc(Cc3ccccc3)[nH]c2-c2cc(Cl)ccc21` [Example 56]: the Ki is 0.0794 µM. Take `O=C(C1CCN(c2ccccn2)CC1)N1CCc2nc(N3CCOCC3)[nH]c2-c2cc(Cl)ccc21` [Example 57]: the Ki was 0.00251 µM.

On to `Cc1ccnc(N2CCC(C(=O)N3CCc4nc(N5CCOCC5)[nH]c4-c4cc(Cl)ccc43)CC2)c1` [Example 58], for which the Ki is 0.000646 µM. As for `Cc1ccc(N2CCC(C(=O)N3CCc4nc(N5CCOCC5)[nH]c4-c4cc(Cl)ccc43)CC2)nc1` [Example 59], the Ki is 0.000794 µM. For `Cc1cccc(N2CCC(C(=O)N3CCc4nc(N5CCOCC5)[nH]c4-c4ccccc43)CC2)n1` [Example 60] the value was 0.0129 µM. For `CCc1nc2c([nH]1)-c1cc(C)ccc1N(C(=O)C1CCN(c3cccc(C)n3)CC1)CC2` [Example 61], the Ki was 0.00741 µM.

Take `CCCc1nc2c([nH]1)-c1cc(C)ccc1N(C(=O)C1CCN(c3cccc(C)n3)CC1)CC2` [Example 62]: the Ki was 0.00741 µM. Turning to `Cc1ccc2c(c1)-c1[nH]c(N3CCOCC3)nc1CCN2C(=O)C1CCN(c2cccc(C)n2)CC1` [Example 63], the Ki is 0.00186 µM. `COc1cccc(N2CCC(C(=O)N3CCc4nc(N5CCOCC5)[nH]c4-c4cc(C)ccc43)CC2)n1` [Example 64]: the Ki is 0.00631 µM. Regarding `Cc1ccc2c(c1)-c1[nH]c(C3CCOCC3)nc1CCN2C(=O)C1CCN(c2cccc(C)n2)CC1` [Example 65], the Ki is 0.00759 µM.

In the case of `COc1cccc(N2CCC(C(=O)N3CCc4nc(C5CCOCC5)[nH]c4-c4cc(C)ccc43)CC2)n1` [Example 66], the Ki is 0.0309 µM. For `Cc1cccc(N2CCC(C(=O)N3CCc4nc(N5CCOCC5)[nH]c4-c4cc(Cl)ccc43)CC2)n1` [Example 67] the value was 0.00135 µM; for `COc1cccc(N2CCC(C(=O)N3CCc4nc(N5CCOCC5)[nH]c4-c4cc(Cl)ccc43)CC2)n1` [Example 68], 0.00191 µM; for `Cc1ccc2c(c1)-c1[nH]c(N3CCOCC3)nc1CCN2C(=O)C1CCN(c2cnccc2C)CC1` [Example 69], 0.0138 µM.

Take `Cc1cncc(N2CCC(C(=O)N3CCc4nc(N5CCOCC5)[nH]c4-c4cc(C)ccc43)CC2)c1` [Example 70]: the Ki is 0.00661 µM. Turning to `Cc1ccc2c(c1)-c1[nH]c(N3CCOCC3)nc1CCN2C(=O)C1CCN(c2cccnc2C)CC1` [Example 71], the Ki was 0.0166 µM.

Consider `Cc1nc2c([nH]1)-c1cc(Cl)ccc1N(C(=O)C1CCN(c3ccccc3)CC1)CC2` [Example 72], for which the Ki is 0.00912 µM. Turning to `CCc1nc2c([nH]1)-c1cc(Cl)ccc1N(C(=O)C1CCN(c3ccccc3)CC1)CC2` [Example 73], the Ki is 0.00617 µM.

As for `CCCc1nc2c([nH]1)-c1cc(Cl)ccc1N(C(=O)C1CCN(c3ccccc3)CC1)CC2` [Example 74], the Ki is 0.0151 µM.

For `O=C(C1CCN(c2ccccc2)CC1)N1CCc2nc(C3CC3)[nH]c2-c2cc(Cl)ccc21` [Example 75], the Ki is 0.011 µM. As for `O=C(C1CCN(c2ccccc2)CC1)N1CCc2nc(C3CCCCC3)[nH]c2-c2cc(Cl)ccc21` [Example 76], the Ki is 0.0282 µM. With `O=C(C1CCN(c2ccccc2)CC1)N1CCc2nc(N3CCCCC3)[nH]c2-c2cc(Cl)ccc21` [Example 77], the Ki is 0.0182 µM. Regarding `CN1CCN(c2nc3c([nH]2)-c2cc(Cl)ccc2N(C(=O)C2CCN(c4ccccc4)CC2)CC3)CC1` [Example 78], the Ki is 0.00871 µM.

With `O=C(C1CCN(c2ccccc2)CC1)N1CCc2nc(-c3ccccc3)[nH]c2-c2cc(Cl)ccc21` [Example 79], the Ki was 0.0776 µM. In the case of `O=C(C1CCN(c2ccccc2)CC1)N1CCc2nc(-c3ccccc3F)[nH]c2-c2cc(Cl)ccc21` [Example 80], the Ki is 0.0813 µM. Turning to `O=C(C1CCN(c2ccccc2)CC1)N1CCc2nc(-c3cccc(F)c3)[nH]c2-c2cc(Cl)ccc21` [Example 81], the Ki is 0.0933 µM. For the compound `O=C(C1CCN(c2ccccc2)CC1)N1CCc2nc(Cc3ccccc3)[nH]c2-c2cc(Cl)ccc21` [Example 82], the Ki was 0.0427 µM.

Consider `Cc1nc2c([nH]1)-c1cc(Cl)ccc1N(C(=O)C1CCN(c3ccccc3F)CC1)CC2` [Example 83], for which the Ki was 0.0263 µM. As for `Cc1nc2c([nH]1)-c1cc(Cl)ccc1N(C(=O)C1CCN(c3cccc(F)c3)CC1)CC2` [Example 84], the Ki was 0.038 µM. Take `Cc1nc2c([nH]1)-c1cc(Cl)ccc1N(C(=O)C1CCN(c3ccc(F)cc3)CC1)CC2` [Example 85]: the Ki was 0.011 µM.

With `Cc1nc2c([nH]1)-c1cc(Cl)ccc1N(C(=O)C1CCN(c3ccccc3Cl)CC1)CC2` [Example 86], the Ki was 0.0316 µM.

Consider `Cc1nc2c([nH]1)-c1cc(Cl)ccc1N(C(=O)C1CCN(c3cccc(Cl)c3)CC1)CC2` [Example 87], for which the Ki is 0.0692 µM. For the compound `Cc1nc2c([nH]1)-c1cc(Cl)ccc1N(C(=O)C1CCN(c3ccc(Cl)cc3)CC1)CC2` [Example 88], the Ki was 0.00617 µM.

On to `Cc1nc2c([nH]1)-c1cc(Cl)ccc1N(C(=O)C1CCN(c3ccccc3C)CC1)CC2` [Example 89], for which the Ki is 0.0257 µM.

Take `Cc1cccc(N2CCC(C(=O)N3CCc4nc(C)[nH]c4-c4cc(Cl)ccc43)CC2)c1` [Example 90]: the Ki is 0.00955 µM.

For the compound `Cc1ccc(N2CCC(C(=O)N3CCc4nc(C)[nH]c4-c4cc(Cl)ccc43)CC2)cc1` [Example 91], the Ki was 0.00126 µM.
